Laboratory results published in ChEMBL document CHEMBL4665869, “New thiazolopyrimidine as anticancer agents: Synthesis, biological evaluation, DNA binding, molecular modeling and ADMET study” (Bioorg Med Chem Lett, 2020).

Columns and labels:
LOX IMVI = test: Growth inhibition of human LOX IMVI cells at 10 uM relative to control; assay type: functional; details: read-out: GI
MDA-MB-468 = test: Growth inhibition of human MDA-MB-468 cells at 10 uM relative to control; assay type: functional; details: read-out: GI
T47D = test: Growth inhibition of human T47D cells at 10 uM relative to control; assay type: functional; details: read-out: GI
CCRF-CEM = test: Growth inhibition of human CCRF-CEM cells at 10 uM relative to control; assay type: functional; details: read-out: GI
HL-60(TB) = test: Growth inhibition of human HL-60(TB) cells at 10 uM relative to control; assay type: functional; details: read-out: GI
K562 = test: Growth inhibition of human K562 cells at 10 uM relative to control; assay type: functional; details: read-out: GI
MOLT-4 = test: Growth inhibition of human MOLT-4 cells at 10 uM relative to control; assay type: functional; details: read-out: GI
RPMI-8226 = test: Growth inhibition of human RPMI-8226 cells at 10 uM relative to control; assay type: functional; details: read-out: GI
SR = test: Growth inhibition of human SR cells at 10 uM relative to control; assay type: functional; details: read-out: GI
A549 = test: Growth inhibition of human A549 cells at 10 uM relative to control; assay type: functional; details: read-out: GI
HOP-62 = test: Growth inhibition of human HOP-62 cells at 10 uM relative to control; assay type: functional; details: read-out: GI
HOP-92 = test: Growth inhibition of human HOP-92 cells at 10 uM relative to control; assay type: functional; details: read-out: GI
NCI-H226 = test: Growth inhibition of human NCI-H226 cells at 10 uM relative to control; assay type: functional; details: read-out: GI
NCI-H23 = test: Growth inhibition of human NCI-H23 cells at 10 uM relative to control; assay type: functional; details: read-out: GI
NCI-H322M = test: Growth inhibition of human NCI-H322M cells at 10 uM relative to control; assay type: functional; details: read-out: GI
NCI-H460 = test: Growth inhibition of human NCI-H460 cells at 10 uM relative to control; assay type: functional; details: read-out: GI
NCI-H522 = test: Growth inhibition of human NCI-H522 cells at 10 uM relative to control; assay type: functional; details: read-out: GI
SW-620 = test: Growth inhibition of human SW-620 cells at 10 uM relative to control; assay type: functional; details: read-out: GI
COLO 205 = test: Growth inhibition of human COLO 205 cells at 10 uM relative to control; assay type: functional; details: read-out: GI
HCC 2998 = test: Growth inhibition of human HCC 2998 cells at 10 uM relative to control; assay type: functional; details: read-out: GI
HCT-116 = test: Growth inhibition of human HCT-116 cells at 10 uM relative to control; assay type: functional; details: read-out: GI
HCT-15 = test: Growth inhibition of human HCT-15 cells at 10 uM relative to control; assay type: functional; details: read-out: GI
HT-29 = test: Growth inhibition of human HT-29 cells at 10 uM relative to control; assay type: functional; details: read-out: GI
KM12 = test: Growth inhibition of human KM12 cells at 10 uM relative to control; assay type: functional; details: read-out: GI
SF-268 = test: Growth inhibition of human SF-268 cells at 10 uM relative to control; assay type: functional; details: read-out: GI
SF-295 = test: Growth inhibition of human SF-295 cells at 10 uM relative to control; assay type: functional; details: read-out: GI
SF-539 = test: Growth inhibition of human SF-539 cells at 10 uM relative to control; assay type: functional; details: read-out: GI
SNB-19 = test: Growth inhibition of human SNB-19 cells at 10 uM relative to control; assay type: functional; details: read-out: GI
SNB-75 = test: Growth inhibition of human SNB-75 cells at 10 uM relative to control; assay type: functional; details: read-out: GI
U-251 = test: Growth inhibition of human U-251 cells at 10 uM relative to control; assay type: functional; details: read-out: GI
Malme-3M = test: Growth inhibition of human Malme-3M cells at 10 uM relative to control; assay type: functional; details: read-out: GI
M14 = test: Growth inhibition of human M14 cells at 10 uM relative to control; assay type: functional; details: read-out: GI
MDA-MB-435 = test: Growth inhibition of human MDA-MB-435 cells at 10 uM relative to control; assay type: functional; details: read-out: GI
SK-MEL-2 = test: Growth inhibition of human SK-MEL-2 cells at 10 uM relative to control; assay type: functional; details: read-out: GI
SK-MEL-28 = test: Growth inhibition of human SK-MEL-28 cells at 10 uM relative to control; assay type: functional; details: read-out: GI
SK-MEL-5 = test: Growth inhibition of human SK-MEL-5 cells at 10 uM relative to control; assay type: functional; details: read-out: GI
UACC-257 = test: Growth inhibition of human UACC-257 cells at 10 uM relative to control; assay type: functional; details: read-out: GI
UACC-62 = test: Growth inhibition of human UACC-62 cells at 10 uM relative to control; assay type: functional; details: read-out: GI
IGROV-1 = test: Growth inhibition of human IGROV-1 cells at 10 uM relative to control; assay type: functional; details: read-out: GI
OVCAR-4 = test: Growth inhibition of human OVCAR-4 cells at 10 uM relative to control; assay type: functional; details: read-out: GI
OVCAR-5 = test: Growth inhibition of human OVCAR-5 cells at 10 uM relative to control; assay type: functional; details: read-out: GI
OVCAR-8 = test: Growth inhibition of human OVCAR-8 cells at 10 uM relative to control; assay type: functional; details: read-out: GI
NCI/ADR-RES = test: Growth inhibition of human NCI/ADR-RES cells at 10 uM relative to control; assay type: functional; details: read-out: GI
SK-OV-3 = test: Growth inhibition of human SK-OV-3 cells at 10 uM relative to control; assay type: functional; details: read-out: GI
786-0 = test: Growth inhibition of human 786-0 cells at 10 uM relative to control; assay type: functional; details: read-out: GI
A498 = test: Growth inhibition of human A498 cells at 10 uM relative to control; assay type: functional; details: read-out: GI
ACHN = test: Growth inhibition of human ACHN cells at 10 uM relative to control; assay type: functional; details: read-out: GI
CAKI-1 = test: Growth inhibition of human CAKI-1 cells at 10 uM relative to control; assay type: functional; details: read-out: GI
RXF 393 = test: Growth inhibition of human RXF 393 cells at 10 uM relative to control; assay type: functional; details: read-out: GI
SN12C = test: Growth inhibition of human SN12C cells at 10 uM relative to control; assay type: functional; details: read-out: GI
TK-10 = test: Growth inhibition of human TK-10 cells at 10 uM relative to control; assay type: functional; details: read-out: GI
UO-31 = test: Growth inhibition of human UO-31 cells at 10 uM relative to control; assay type: functional; details: read-out: GI
PC-3 = test: Growth inhibition of human PC-3 cells at 10 uM relative to control; assay type: functional; details: read-out: GI
DU-145 = test: Growth inhibition of human DU-145 cells at 10 uM relative to control; assay type: functional; details: read-out: GI
MCF7 = test: Growth inhibition of human MCF7 cells at 10 uM relative to control; assay type: functional; details: read-out: GI
MDA-MB-231 = test: Growth inhibition of human MDA-MB-231 cells at 10 uM relative to control; assay type: functional; details: read-out: GI
Hs-578T = test: Growth inhibition of human Hs-578T cells at 10 uM relative to control; assay type: functional; details: read-out: GI
BT-549 = test: Growth inhibition of human BT-549 cells at 10 uM relative to control; assay type: functional; details: read-out: GI
DNA = test: Displacement of methyl green from DNA (unknown origin) assessed as DNA intercalation after 24 hrs by colorimetric assay; assay type: nucleic-acid assay

C1=CN2C(=NC(/C=C/c3cccs3)=CC2c2cccs2)S1 (centres undefined)
12.3%: inhibition of growth at 10 µM (SNB-75)
33.67 µg/mL: IC50 (DNA)
< 10%: inhibition of growth at 10 µM (LOX IMVI) | inhibition of growth at 10 µM (MDA-MB-468) | inhibition of growth at 10 µM (T47D) | inhibition of growth at 10 µM (CCRF-CEM) | inhibition of growth at 10 µM (HL-60(TB)) | inhibition of growth at 10 µM (K562) | inhibition of growth at 10 µM (MOLT-4) | inhibition of growth at 10 µM (RPMI-8226) | inhibition of growth at 10 µM (SR) | inhibition of growth at 10 µM (A549) | inhibition of growth at 10 µM (HOP-62) | inhibition of growth at 10 µM (HOP-92) | inhibition of growth at 10 µM (NCI-H226) | inhibition of growth at 10 µM (NCI-H23) | inhibition of growth at 10 µM (NCI-H322M) | inhibition of growth at 10 µM (NCI-H460) | inhibition of growth at 10 µM (NCI-H522) | inhibition of growth at 10 µM (SW-620) | inhibition of growth at 10 µM (COLO 205) | inhibition of growth at 10 µM (HCC 2998) | inhibition of growth at 10 µM (HCT-116) | inhibition of growth at 10 µM (HCT-15) | inhibition of growth at 10 µM (HT-29) | inhibition of growth at 10 µM (KM12) | inhibition of growth at 10 µM (SF-268) | inhibition of growth at 10 µM (SF-295) | inhibition of growth at 10 µM (SF-539) | inhibition of growth at 10 µM (SNB-19) | inhibition of growth at 10 µM (U-251) | inhibition of growth at 10 µM (Malme-3M) | inhibition of growth at 10 µM (M14) | inhibition of growth at 10 µM (MDA-MB-435) | inhibition of growth at 10 µM (SK-MEL-2) | inhibition of growth at 10 µM (SK-MEL-28) | inhibition of growth at 10 µM (SK-MEL-5) | inhibition of growth at 10 µM (UACC-257) | inhibition of growth at 10 µM (UACC-62) | inhibition of growth at 10 µM (IGROV-1) | inhibition of growth at 10 µM (OVCAR-4) | inhibition of growth at 10 µM (OVCAR-5) | inhibition of growth at 10 µM (OVCAR-8) | inhibition of growth at 10 µM (NCI/ADR-RES) | inhibition of growth at 10 µM (SK-OV-3) | inhibition of growth at 10 µM (786-0) | inhibition of growth at 10 µM (A498) | inhibition of growth at 10 µM (ACHN) | inhibition of growth at 10 µM (CAKI-1) | inhibition of growth at 10 µM (RXF 393) | inhibition of growth at 10 µM (SN12C) | inhibition of growth at 10 µM (TK-10) | inhibition of growth at 10 µM (UO-31) | inhibition of growth at 10 µM (PC-3) | inhibition of growth at 10 µM (DU-145) | inhibition of growth at 10 µM (MCF7) | inhibition of growth at 10 µM (MDA-MB-231) | inhibition of growth at 10 µM (Hs-578T) | inhibition of growth at 10 µM (BT-549)
